# Results published in PubChem BioAssay AID330 (DTP/NCI, 2004).
# Values joined by “and” are separate entries in the source; they are usually repeats but may differ in a detail not shown here. Equal values may be shown once. Inconclusive results and toxic doses are left out.
# Test system: P388 leukemia ip, CD2F1 mice, survival T/C
# Test: NCI In Vivo Anticancer Drug Screen. Data for tumor model P388 Leukemia (intraperitoneal) in CD2F1 (CDF1) mice
# Settings: endpoint: median survival time, higher = longer survival
# Outline: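 Mice carrying the transplanted tumor received test compound or vehicle. Survival was recorded in each group, and the value is the treated-group measurement divided by that of the vehicle-treated control group.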
# [1] = dose: 6.25 mg/kg/injection, schedule: Q01DX009 (ip), vehicle: saline with Tween-80
# [2] = dose: 12.5 mg/kg/injection, schedule: Q01DX009 (ip), vehicle: saline with Tween-80
# [3] = dose: 25.0 mg/kg/injection, schedule: Q01DX009 (ip), vehicle: saline with Tween-80
# [4] = dose: 50.0 mg/kg/injection, schedule: Q01DX009 (ip), vehicle: saline with Tween-80
# [5] = dose: 100.0 mg/kg/injection, schedule: Q01DX009 (ip), vehicle: saline with Tween-80
# [6] = dose: 100.0 mg/kg/injection, schedule: Q04DX003 (ip), vehicle: saline with Tween-80
# [7] = dose: 200.0 mg/kg/injection, schedule: Q04DX003 (ip), vehicle: saline with Tween-80
# [8] = dose: 50.0 mg/kg/injection, schedule: Q01DX005 (ip), vehicle: saline with Tween-80
# [9] = dose: 100.0 mg/kg/injection, schedule: Q01DX005 (ip), vehicle: saline with Tween-80
# [10] = dose: 200.0 mg/kg/injection, schedule: Q01DX005 (ip), vehicle: saline with Tween-80
# [11] = dose: 3.13 mg/kg/injection, schedule: Q01DX009 (ip), vehicle: saline with Tween-80
# [12] = dose: 200.0 mg/kg/injection, schedule: Q01DX009 (ip), vehicle: saline with Tween-80
# [13] = dose: 400.0 mg/kg/injection, schedule: Q01DX009 (ip), vehicle: saline with Tween-80
# [14] = dose: 400.0 mg/kg/injection, schedule: Q04DX003 (ip), vehicle: saline with Tween-80
structure (smiles),measurement,setting,value
COc1cccc2c1C(=O)c1c(O)c3c(c(O)c1C2=O)CC(O)(c1csc(-c2ccncc2)n1)CC3O (centres undefined),T/C,"dose: 1.56 mg/kg/injection, schedule: Q01DX009 (ip), vehicle: other",106 % of control
same,T/C,"dose: 3.13 mg/kg/injection, schedule: Q01DX009 (ip), vehicle: other",105 % of control
same,T/C,"dose: 6.25 mg/kg/injection, schedule: Q01DX009 (ip), vehicle: other",104 % of control
same,T/C,"dose: 12.5 mg/kg/injection, schedule: Q01DX009 (ip), vehicle: other",106 % of control
same,T/C,"dose: 25.0 mg/kg/injection, schedule: Q01DX009 (ip), vehicle: other",113 % of control and 116 % of control
same,T/C,"dose: 50.0 mg/kg/injection, schedule: Q01DX009 (ip), vehicle: other",107 % of control
same,T/C,"dose: 100.0 mg/kg/injection, schedule: Q01DX009 (ip), vehicle: other",102 % of control
O=C(CC(C(=O)c1ccccc1)N1CC1)c1ccccc1 (centres undefined),T/C,[1],95 % of control
same,T/C,[2],100 % of control
same,T/C,[3],100 % of control and 87 % of control
same,T/C,[4],116 % of control
same,T/C,[5],91 % of control
O=C(CC(O)(C(F)(F)F)C(F)(F)F)c1ccc(Cl)cc1,T/C,"dose: 50.0 mg/kg/injection, schedule: Q04DX003 (ip), vehicle: saline with Tween-80",104 % of control
same,T/C,[6],100 % of control
same,T/C,[7],104 % of control
CC1OC(OCC2OC(Oc3c(-c4ccc(O)c(O)c4)oc4cc(O)cc(O)c4c3=O)C(O)C(O)C2O)C(O)C(O)C1O (centres undefined),T/C,"dose: 6.25 mg/kg/injection, schedule: Q01DX005 (ip), vehicle: saline with Tween-80",95 % of control
same,T/C,"dose: 12.5 mg/kg/injection, schedule: Q01DX005 (ip), vehicle: saline with Tween-80",94 % of control
same,T/C,"dose: 25.0 mg/kg/injection, schedule: Q01DX005 (ip), vehicle: saline with Tween-80",94 % of control
CC(=O)OCC1OC(n2ccc(N)nc2=O)C(OC(C)=O)C1OC(C)=O (centres undefined),T/C,"dose: 100.0 mg/kg/injection, schedule: Q01DX009 (ip), vehicle: saline",162 % of control
same,T/C,"dose: 200.0 mg/kg/injection, schedule: Q01DX009 (ip), vehicle: saline",178 % of control
CN1CCC2CC1Cc1ccc(NS(C)(=O)=O)cc12 (centres undefined),T/C,[8],98 % of control
same,T/C,[9],100 % of control
same,T/C,[10],91 % of control
Cc1ccc(N2C(=O)CC3(CCCCC3)C2=O)cc1[N+](=O)[O-],T/C,"dose: 100.0 mg/kg/injection, schedule: Q04DX003 (ip), vehicle: Klucel (hydroxypropylcellulose) (HPC)",93 % of control
same,T/C,"dose: 200.0 mg/kg/injection, schedule: Q04DX003 (ip), vehicle: Klucel (hydroxypropylcellulose) (HPC)",97 % of control
same,T/C,"dose: 400.0 mg/kg/injection, schedule: Q04DX003 (ip), vehicle: Klucel (hydroxypropylcellulose) (HPC)",99 % of control
O=C(O)CC(CS(=O)CP(=O)(O)O)C(=O)O (centres undefined),T/C,"dose: 60.0 mg/kg/injection, schedule: Q01DX005 (ip), vehicle: saline",93 % of control
same,T/C,"dose: 120.0 mg/kg/injection, schedule: Q01DX005 (ip), vehicle: saline",98 % of control
same,T/C,"dose: 240.0 mg/kg/injection, schedule: Q01DX005 (ip), vehicle: saline",95 % of control
CC1(C)N=C(N)N=C(N)N1c1cccc(CCCCOc2ccccc2)c1,T/C,[11],150 % of control
same,T/C,[1],150 % of control
same,T/C,"dose: 6.25 mg/kg/injection, schedule: Q04DX003 (ip), vehicle: saline with Tween-80",113 % of control
same,T/C,[2],154 % of control
same,T/C,"dose: 12.5 mg/kg/injection, schedule: Q04DX003 (ip), vehicle: saline with Tween-80",109 % of control
same,T/C,"dose: 18.0 mg/kg/injection, schedule: Q01DX009 (ip), vehicle: saline with Tween-80",95 % of control
O=C(CCl)N1C(=O)NC(c2ccc(Cl)cc2)(c2ccc(Cl)cc2)C1=O,T/C,"dose: 5.0 mg/kg/injection, schedule: Q04DX003 (ip), vehicle: other",105 % of control
same,T/C,"dose: 10.0 mg/kg/injection, schedule: Q04DX003 (ip), vehicle: other",116 % of control
same,T/C,"dose: 20.0 mg/kg/injection, schedule: Q04DX003 (ip), vehicle: other",108 % of control and 123 % of control
COC(=O)c1cc2c(C(=O)OC)cc1CSCc1cccc(c1)CSC2,T/C,"dose: 12.5 mg/kg/injection, schedule: Q01DX009 (ip), vehicle: suspension in saline",90 % of control
same,T/C,"dose: 25.0 mg/kg/injection, schedule: Q01DX009 (ip), vehicle: suspension in saline",87 % of control
same,T/C,"dose: 50.0 mg/kg/injection, schedule: Q01DX009 (ip), vehicle: suspension in saline",97 % of control
CN=C(N)N/N=C/c1c2ccccc2c(C)c2ccccc12,T/C,"dose: 25.0 mg/kg/injection, schedule: Q04DX002 (ip), vehicle: saline",119 % of control
same,T/C,"dose: 50.0 mg/kg/injection, schedule: Q04DX002 (ip), vehicle: saline",115 % of control
Nc1nnc(Cc2nnc(N)o2)o1,T/C,[8],101 % of control
same,T/C,[9],101 % of control
same,T/C,[10],98 % of control
NC(Cc1cccs1)C(=O)O (centres undefined),T/C,[5],100 % of control
same,T/C,[6],109 % of control
same,T/C,[12],100 % of control
same,T/C,[7],100 % of control
same,T/C,[13],100 % of control
same,T/C,[14],100 % of control
CC12CCC3C(CCC4CC(O)CCC43C)C1CC(C1(O)C(=O)Nc3ccccc31)C2=O (centres undefined),T/C,[3],94 % of control
same,T/C,[4],88 % of control
same,T/C,[5],94 % of control
O=Cc1c[nH]c2ccc(Br)cc12,T/C,"dose: 100.0 mg/kg/injection, schedule: Q01DX001 (ip), vehicle: other",100 % of control
same,T/C,"dose: 200.0 mg/kg/injection, schedule: Q01DX001 (ip), vehicle: other",90 % of control
same,T/C,"dose: 400.0 mg/kg/injection, schedule: Q01DX001 (ip), vehicle: other",100 % of control
Clc1cccc(Cl)c1C(Nc1cnccn1)Nc1cnccn1,T/C,"dose: 25.0 mg/kg/injection, schedule: Q01DX005 (ip), vehicle: Klucel (hydroxypropylcellulose) (HPC)",101 % of control and 104 % of control
same,T/C,"dose: 50.0 mg/kg/injection, schedule: Q01DX005 (ip), vehicle: Klucel (hydroxypropylcellulose) (HPC)",101 % of control (2×) and 116 % of control
same,T/C,"dose: 100.0 mg/kg/injection, schedule: Q01DX005 (ip), vehicle: Klucel (hydroxypropylcellulose) (HPC)",106 % of control and 113 % of control
CCOS(=O)(=O)CCl,T/C,[2],106 % of control
same,T/C,[3],100 % of control
same,T/C,[4],107 % of control and 112 % of control
OCC1OC(n2ccc3c(Cl)ncnc32)C(O)C1O (centres undefined),T/C,"dose: 6.25 mg/kg/injection, schedule: Q01DX005 (ip), vehicle: suspension in saline",110 % of control
same,T/C,"dose: 12.5 mg/kg/injection, schedule: Q01DX005 (ip), vehicle: suspension in saline",117 % of control
same,T/C,"dose: 25.0 mg/kg/injection, schedule: Q01DX005 (ip), vehicle: suspension in saline",96 % of control
COC(=O)/C(=C/c1ccccc1)NC(C)=O,T/C,"dose: 60.0 mg/kg/injection, schedule: Q01DX005 (ip), vehicle: Klucel (hydroxypropylcellulose) (HPC)",104 % of control
same,T/C,"dose: 120.0 mg/kg/injection, schedule: Q01DX005 (ip), vehicle: Klucel (hydroxypropylcellulose) (HPC)",101 % of control
same,T/C,"dose: 240.0 mg/kg/injection, schedule: Q01DX005 (ip), vehicle: Klucel (hydroxypropylcellulose) (HPC)",97 % of control
S=C([S][Sn]([c]1ccccc1)([c]1ccccc1)[c]1ccccc1)N1CCOCC1,T/C,"dose: 1.56 mg/kg/injection, schedule: Q01DX009 (ip), vehicle: saline with Tween-80",100 % of control
same,T/C,[11],100 % of control and 103 % of control and 109 % of control
same,T/C,[1],107 % of control and 108 % of control
same,T/C,[2],105 % of control
COc1ccc(/C=C/c2ccc3ccccc3n2)c(OC)c1,T/C,[5],100 % of control
same,T/C,[12],100 % of control
same,T/C,[13],100 % of control
C/C(=N\N=P(c1ccccc1)(c1ccccc1)c1ccccc1)C(C)(C)C,T/C,"dose: 6.25 mg/kg/injection, schedule: Q01DX009 (ip), vehicle: Klucel (hydroxypropylcellulose) (HPC)",100 % of control
same,T/C,"dose: 12.5 mg/kg/injection, schedule: Q01DX009 (ip), vehicle: Klucel (hydroxypropylcellulose) (HPC)",95 % of control
same,T/C,"dose: 25.0 mg/kg/injection, schedule: Q01DX009 (ip), vehicle: Klucel (hydroxypropylcellulose) (HPC)",94 % of control
CC1NCC23CCC4C(CC=C5CC(O)CCC54C)C2CCC13 (centres undefined),T/C,[3],90 % of control
same,T/C,[4],87 % of control
same,T/C,[5],94 % of control
OC(CCC1OCCO1)(CCC1OCCO1)c1ccccc1,T/C,"dose: 50.0 mg/kg/injection, schedule: Q01DX009 (ip), vehicle: Klucel (hydroxypropylcellulose) (HPC)",97 % of control
same,T/C,"dose: 100.0 mg/kg/injection, schedule: Q01DX009 (ip), vehicle: Klucel (hydroxypropylcellulose) (HPC)",103 % of control
same,T/C,"dose: 200.0 mg/kg/injection, schedule: Q01DX009 (ip), vehicle: Klucel (hydroxypropylcellulose) (HPC)",93 % of control
CC(C)c1ccc(C2OCC(C)(C)C(C(C)C)O2)cc1 (centres undefined),T/C,[6],108 % of control
same,T/C,[7],105 % of control
same,T/C,[14],109 % of control
